Source: patent US10251831B2, “Extract for treating wrinkles and/or fine lines” (Avon Products, Inc., priority 2009, dated 2019)

How the values were obtained:
[1] = test system: paxillin mRNA; assay: Stimulation of paxillin mRNA in vitro (QuantiGene multiplex branched DNA assay); type: cell-based; details: normal human dermal fibroblasts, 24 hours treatment, normalized to GAPDH
Description: Normal human dermal fibroblasts (Cascade Biologics) were cultured in 96-well tissue culture treated plates, with 200 μl DMEM in 10% serum per well, and incubated for 24 hours at 37° C. and 10% CO2. In some cases, normal human epidermal keratinocytes (Cascade Biologics) were cultured in 200 μl EpiLife medium (Cascade Biologics) per well, and incubated overnight at 37° C. and 5% CO2.
Stock solutions of candidate paxillin stimulators (test materials) were made in appropriate solvents (e.g., DMSO, water, ethanol, a 50:50 ethanol:water mixture) to give weight % as indicated in Table 1 below. Cells were treated with test material or a respective vehicle control diluted in growth medium for 24 hours in a humidified 37° C. incubator with 10% CO2. After incubation, growth medium from each plate was removed and 100 μl of lysis buffer was added to the wells and placed in 37° C. incubator with 5% CO2 for 30 minutes. At the end of incubation, the cells were collected in freezer plates and placed in a −80° C. freezer until analysis.
Changes in mRNA for paxillin in cell lysates after treatment were analysed using QuantiGene® multiplex assay (Panomics Inc. CA) that employs a branched DNA technology. This technology is a hybridization-based method of target-specific RNA quantification that amplifies a signal(s) rather than target RNA, using labelled DNA probe. Probes for Paxillin gene (ID: NM_005953) were designed and synthesized. Paxillin probes, reference probes PPIB and GAPDH, along with a set of other probes were used in this multiplex assay.
The probes used include capture extenders (CE), label extenders (LE), and blockers (BL). As described above, this arrangement provides a target sequence that is double-stranded, thereby improving hybridization efficiency. The CE, LE, and BL sequences used for identifying paxillin mRNA corresponded to SEQ ID NOS: 1, 2, and 3, respectively.
Appropriately diluted cell lysates were hybridized with the paxillin and reference probes in a hybridization plate in a Vortemp shaking incubator, for 18-22 hours at 54° C.±1° C. and 600 rpm. Once the paxillin and the reference mRNAs were captured, the unbound material was filtered using filter plates and washed three times with a wash buffer. Signal amplification was performed using two steps—first a 2.0 Pre-amplifier (Panomics Inc.) was added and incubated for 1 hour in the Vortemp shaking incubator at 54° C.±1° C. and 600 rpm. Unbound Pre-amplifier was filtered using a Filter plate and washed twice. Next the samples were exposed to 2.0 Amplifier (Panomics Inc.) and incubated, filtered, and washed as with the Pre-amplifier. Next the samples were hybridized with biotinylated labelled probe, and incubated for one hour at 54° C.±1° C. and 600 rpm. Samples were then filtered and washed as above. Finally, Streptavidin-conjugated Phycoerythrin (SAPE) working reagent was added and the mixture shaken for 30 minutes at room temperature covered in aluminium foil. Unbound SAPE was filtered and washed twice. SAPE wash buffer was added to each well with shaking for 2-5 minutes, and then readings were taken immediately using a Luminex machine.
Values for amounts of paxillin mRNA were determined along with those for the reference genes PPIB and GAPDH. Values were normalized to GAPDH to determine changes in paxillin mRNA after treatment. Percent increase in mRNA for paxillin was calculated in each case by comparing values after treatment with a candidate paxillin stimulator to values after treatment with the vehicle control.

[2] = test system: Paxillin protein; assay: Stimulation of paxillin protein in human skin biopsy (topical patch, immunohistochemistry); type: in vivo
Description: Compositions comprising a paxillin stimulator were each tested on 21 subject volunteers. For each paxillin stimulator, the composition was topically applied via a patch attached to the back of a randomly selected forearm of each of 21 volunteers, and a vehicle control was similarly applied to the back of the volunteer's forearm. After 3 weeks, the human skin biopsies were taken from the treated skin of the various volunteers and subjected to immunohistochemisty preparation. […] Elevated protein level was determined for each treated subject by comparing to the vehicle control.

CCCCCCCC/C=C\CCCCCCCC(=O)OC/C=C(C)/C=C/C=C(C)/C=C/C1=C(C)CCCC1(C)C [Retinyl oleate]
% increase in Paxillin (relative to control) ([1]; Weight % 0.01%): 60.21%

Cc1coc2c1C(=O)C(=O)c1c-2ccc2c1CCCC2(C)C [Tanshinone IIA, 1,6,6-trimethyl-8,9-dihydro-7H-naphtho[1,2-g][1]benzofuran-10,11-dione]
% increase in Paxillin (relative to control) ([1]; Weight % 0.025%): 188.31%

Cc1ccc(C(C)C)cc1O [Carvacrol]
% increase in Paxillin (relative to control) ([1]; Weight % 0.0001%): 39.50%

COc1ccc2cc1Oc1ccc(cc1)C[C@H]1c3cc(c(OC)cc3CCN1C)Oc1c(OC)c(OC)cc3c1[C@H](C2)N(C)CC3 [Tetrandine, 6,6′,7,12-Tetramethoxy-2,2′-dimethyl-berbaman]
% increase in Paxillin (relative to control) ([1]; Weight % 0.001%): 84.31%

O=C(c1ccccc1)N1C[C@@H]2C[C@H](C1)c1ccc(-c3ccco3)c(=O)n1C2 [Compound of Formula V]
% increase in Paxillin (relative to control) ([1]; Weight % 0.00005%): 28.52%

CCCCC=CC=CC=CCCCCCCCC(=O)OCC=C(C)C=CC=C(C)C=CC1=C(C)CCCC1(C)C [Retinyl punicate]
% increase in Paxillin (relative to control) ([1]; Weight % 0.01%): 69.68%

Oc1ccc(C2COc3cc(O)ccc3C2)cc1 (stereo not drawn) [Equol, 4′,7-isoflavandiol]
% increase in Paxillin (relative to control) ([1]; Weight % 0.0001%): 61.46% | % increase in Paxillin (relative to control) ([1]; Weight % 0.001%): 220.36%

CC/C=C\CCCCCO [cis-6-Nonenol, Cis-6-Nonenol]
% Subjects Improved ([2]; percentage of subjects with elevated paxillin protein level vs vehicle control, topical patch on forearm, 3 weeks): 71.4% | paxillin protein in human skin biopsies (antibody stain, FIG. 1) ([2]; representative photographs, compared to treatment with a control): increased paxillin protein | No. Showing Improvement ([2]; subjects with elevated paxillin protein level vs vehicle control, topical patch on forearm, 3 weeks, 21 subjects): 15 | % increase in Paxillin (relative to control) ([1]; Weight % 0.001%): 60.84%
